The source of these data is US7183276B2, “Azole compounds” (Takeda Pharmaceutical Company Limited, priority 2002, dated 2007).

Molecules are shown by their SMILES.

By melting point is commonly meant the temperature, or range, at which the solid turns liquid.

Take `O=C(CCc1oc(-n2cnc3ccccc32)nc1-c1ccc(Cl)cc1)NCCc1ccccn1` [Example 92, 3-[2-(1H-benzimidazol-1-yl)-4-(4-chlorophenyl)-5-oxazolyl]-N-[2-(2-pyridinyl)ethyl]propionamide]: the melting point lay within 150 to 151 °C.

`O=C(CCc1oc(-n2cnc3ccccc32)nc1-c1ccc(Cl)cc1)NCc1cc(Br)ccc1F` [Example 167, 3-[2-(1H-benzimidazol-1-yl)-4-(4-chlorophenyl)-5-oxazolyl]-N-(5-bromo-2-fluorobenzyl)propionamide] gave a melting point of 183 to 184 °C. `O=C(CCc1oc(-n2cnc3ccccc32)nc1-c1ccc(Cl)cc1)Nc1cccc(CO)c1` [Example 108, 3-[2-(1H-benzimidazol-1-yl)-4-(4-chlorophenyl)-5-oxazolyl]-N-[3-(hydroxymethyl)phenyl]propionamide] had a melting point of 206 to 207 °C. The result for `COc1cc(CNC(=O)CCc2oc(-n3cnc4ccccc43)nc2-c2ccc(Cl)cc2)cc(OC)c1OC` [Example 169, 3-[2-(1H-benzimidazol-1-yl)-4-(4-chlorophenyl)-5-oxazolyl]-N-(3,4,5-trimethoxybenzyl)propionamide] reads 169 to 170 °C; that for `NC(=O)CCc1oc(Oc2ccccc2)nc1-c1ccc(Cl)cc1` [Example 38, 3-[4-(4-chlorophenyl)-2-phenoxy-5-oxazolyl]propionamide], 139 to 140 °C; that for `N#CCc1ccc(NC(=O)CCc2oc(-n3cnc4ccccc43)nc2-c2ccc(Cl)cc2)cc1` [Example 89, 3-[2-(1H-benzimidazol-1-yl)-4-(4-chlorophenyl)-5-oxazolyl]-N-[4-(cyanomethyl)phenyl]propionamide], 212 to 214 °C. The result for `CC(C)(C)c1ccc(NC(=O)CCc2oc(-n3cnc4ccccc43)nc2-c2ccc(Cl)cc2)cc1` [Example 117, 3-[2-(1H-benzimidazol-1-yl)-4-(4-chlorophenyl)-5-oxazolyl]-N-(4-tert-butylphenyl)propionamide] reads 219 to 220 °C; that for `CCOP(=O)(Cc1ccc(NC(=O)/C=C/c2sc(-n3cnc4ccccc43)nc2C(C)C)cc1)OCC`, 198 to 199 °C; that for `O=C(CCc1oc(-n2cnc3ccccc32)nc1-c1ccc(Cl)cc1)NCc1ccc(F)c(Cl)c1` [Example 173, 3-[2-(1H-benzimidazol-1-yl)-4-(4-chlorophenyl)-5-oxazolyl]-N-(3-chloro-4-fluorobenzyl)propionamide], 188 to 189 °C.

In turn, `CCOP(=O)(Cc1ccc(NC(=O)CCc2oc(Cc3ccccc3)nc2-c2ccc(Cl)cc2)cc1)OCC` came in with a melting point of 161 to 162 °C. As for `O=C(CCc1oc(-n2cnc3ccccc32)nc1-c1ccc(Cl)cc1)NCc1cc(F)cc(F)c1` [Example 164, 3-[2-(1H-benzimidazol-1-yl)-4-(4-chlorophenyl)-5-oxazolyl]-N-(3,5-difluorobenzyl)propionamide], the figure is 155 to 156 °C; as for `CSc1ccc(NC(=O)CCc2oc(-n3cnc4ccccc43)nc2-c2ccc(Cl)cc2)cc1` [Example 96, 3-[2-(1H-benzimidazol-1-yl)-4-(4-chlorophenyl)-5-oxazolyl]-N-{4-(methylsulfanyl)phenyl}propionamide], 276 to 277 °C. As for `NC(=O)CCc1oc(-c2cccs2)nc1-c1ccc(Cl)cc1` [Example 25, 3-[4-(4-chlorophenyl)-2-(2-thienyl)-5-oxazolyl]propionamide], the figure is 226 to 227 °C. In the case of `Cc1ccc(CNC(=O)CCc2oc(-n3cnc4ccccc43)nc2-c2ccc(Cl)cc2)cc1` [Example 125, 3-[2-(1H-benzimidazol-1-yl)-4-(4-chlorophenyl)-5-oxazolyl]-N-(4-methylbenzyl)propionamide], the melting point was 241 to 242 °C. As for `CCOP(=O)(Cc1ccc(NC(=O)CCc2sc(-n3cnc4ccccc43)nc2-c2ccccc2)cc1)OCC`, the figure is 142 to 143 °C.

`NC(=O)CCc1oc(Cc2ccccc2)nc1-c1ccc(Cl)cc1` [Example 18, 3-[2-benzyl-4-(4-chlorophenyl)-5-oxazolyl]propionamide] gave a melting point of 169 to 170 °C. As for `CCOP(=O)(Cc1ccc(NC(=O)CCc2ocnc2-c2ccc(Cl)cc2)cc1)OCC`, the figure is 130 to 131 °C. As for `CC(C)(C)c1ccc(CNC(=O)CCc2oc(-n3cnc4ccccc43)nc2-c2ccc(Cl)cc2)cc1` [Example 144, 3-[2-(1H-benzimidazol-1-yl)-4-(4-chlorophenyl)-5-oxazolyl]-N-[4-tert-butylbenzyl]propionamide], the figure is 170 to 171 °C. The result for `CCOP(=O)(Cc1ccc(NC(=O)CCc2sc(NC(=O)NCc3ccccc3)nc2-c2ccc(Cl)cc2)cc1)OCC` reads 144 to 145 °C; that for `O=C(CCc1oc(-n2cnc3ccccc32)nc1-c1ccc(Cl)cc1)NCc1ccc(F)c(Br)c1` [Example 170, 3-[2-(1H-benzimidazol-1-yl)-4-(4-chlorophenyl)-5-oxazolyl]-N-(3-bromo-4-fluorobenzyl)propionamide], 206 to 207 °C; that for `CCOP(=O)(Cc1ccc(NC(=O)CCCc2sc(-n3cnc4ccccc43)nc2-c2ccc(Cl)cc2)cc1)OCC`, 140 to 141 °C. `CCOP(=O)(CCCNC(=O)CCc1oc(-n2cnc3ccccc32)nc1-c1ccc(Cl)cc1)OCC`: the melting point fell in the range of 130 to 131 °C. `O=C(CCc1oc(-n2cnc3ccccc32)nc1-c1ccc(Cl)cc1)NCc1ccccc1Cl` [Example 134, 3-[2-(1H-benzimidazol-1-yl)-4-(4-chlorophenyl)-5-oxazolyl]-N-(2-chlorobenzyl)propionamide] gave a melting point of 222 to 223 °C. As for `CCOP(=O)(Cc1ccc(NC(=O)CCc2oc(Sc3ncccn3)nc2-c2ccc(Cl)cc2)cc1)OCC`, the figure is 146 to 147 °C; as for `O=C(CCc1oc(-n2cnc3ccccc32)nc1-c1ccc(Cl)cc1)NCc1cccc(-c2ccccc2)c1` [Example 177, 3-[2-(1H-benzimidazol-1-yl)-4-(4-chlorophenyl)-5-oxazolyl]-N-(3-phenylbenzyl)propionamide], 201 to 202 °C; as for `Cc1ccc(C)c(CNC(=O)CCc2oc(-n3cnc4ccccc43)nc2-c2ccc(Cl)cc2)c1` [Example 181, 3-[2-(1H-benzimidazol-1-yl)-4-(4-chlorophenyl)-5-oxazolyl]-N-(2,5-dimethylbenzyl)propionamide], 218 to 219 °C. The result for `CN(Cc1ccc(NC(=O)CCc2oc(-n3cnc4ccccc43)nc2-c2ccc(Cl)cc2)cc1)C1CCOCC1` [Example 87, 3-[2-(1H-benzimidazol-1-yl)-4-(4-chlorophenyl)-5-oxazolyl)-N-(4-{[N-methyl-N-(4-tetrahydropyranyl)amino]methyl}phenyl)propionamide] reads 182 to 184 °C; that for `O=C(CCc1oc(-n2cnc3ccccc32)nc1-c1ccc(Cl)cc1)NCc1ccc(C(F)(F)F)cc1` [Example 138, 3-[2-(1H-benzimidazol-1-yl)-4-(4-chlorophenyl)-5-oxazolyl]-N-[4-(trifluoromethyl)benzyl]propionamide], 194 to 195 °C. The result for `CCOP(=O)(Cc1ccc(NC(=O)CCCc2oc(N3CCN(n4c(=O)[nH]c5ccccc54)CC3)nc2-c2ccc(Cl)cc2)cc1)OCC` reads 205 to 209 °C; that for `COP(=O)(Cc1ccc(NC(=O)CCCCCc2sc(-c3ccccc3)nc2-c2ccc(Cl)cc2)cc1)OC`, 164 to 165 °C.

Compound `COc1ccccc1NC(=O)CCc1oc(-n2ccnc2C)nc1-c1ccc(Cl)cc1` [Example 71, 3-[4-(4-chlorophenyl)-2-(2-methyl-1-imidazolyl)-5-oxazolyl]-N-(2-methoxyphenyl)propionamide] had a melting point of 153 to 154 °C.

`COC(=O)Cc1csc(NC(=O)CCc2oc(-n3cnc4ccccc43)nc2-c2ccc(Cl)cc2)n1` [Example 129, 3-[2-(1H-benzimidazol-1-yl)-4-(4-chlorophenyl)-5-oxazolyl]-N-{4-[(methoxycarbonyl)methyl]-2-thiazolyl}propionamide] returned a melting point of 233 to 234 °C. As for `NC(=O)CCc1sc(-c2ccccc2)nc1-c1ccc(Cl)cc1` [Example 46, 3-[4-(4-chlorophenyl)-2-phenyl-5-thiazolyl]propionamide], the figure is 175 to 176 °C; as for `O=C(CCc1oc(-n2cnc3ccccc32)nc1-c1ccc(Cl)cc1)NCc1ccncc1` [Example 155, 3-[2-(1H-benzimidazol-1-yl)-4-(4-chlorophenyl)-5-oxazolyl]-N-(4-pyridinylmethyl)propionamide], 214 to 216 °C. As for `NC(=O)c1ccc(NC(=O)/C=C/c2oc(-c3ccccc3)nc2-c2ccc(Cl)cc2)cc1` [Example 68, 4-({(2E)-3-[4-(4-chlorophenyl)-2-phenyl-5-oxazolyl]propenoyl}amino)benzamide], the figure is 274 to 275 °C; as for `O=C(CCc1oc(-n2cnc3ccccc32)nc1-c1ccc(Cl)cc1)NCc1ccccc1C(F)(F)F` [Example 157, 3-[2-(1H-benzimidazol-1-yl)-4-(4-chlorophenyl)-5-oxazolyl]-N-[2-(trifluoromethyl)benzyl]propionamide], 208 to 209 °C.

Turning to `O=C(CCc1oc(-n2cnc3ccccc32)nc1-c1ccc(Cl)cc1)NCCOc1ccccc1` [Example 162, 3-[2-(1H-benzimidazol-1-yl)-4-(4-chlorophenyl)-5-oxazolyl]-N-(2-phenoxyethyl)propionamide], the melting point lay in the range of 156 to 157 °C.

`O=C(CCc1oc(-n2cnc3ccccc32)nc1-c1ccc(Cl)cc1)Nc1ccccc1` [Example 120, 3-[2-(1H-benzimidazol-1-yl)-4-(4-chlorophenyl)-5-oxazolyl]-N-phenylpropionamide]: the melting point was in the range of 226 to 227 °C.

On to `CCOP(=O)(Cc1ccc(NC(=O)CCc2sc(-n3cnc4ccccc43)nc2C(C)(C)C)cc1)OCC`, for which the melting point lay within 155 to 156 °C.

Turning to `CCOP(=O)(Cc1ccc(NC(=O)CCc2oc(-c3ccc4ccccc4c3)nc2-c2ccc(Cl)cc2)cc1)OCC`, the melting point fell in the range of 191 to 192 °C. The result for `CC(C)c1ccc(NC(=O)CCc2oc(-n3cnc4ccccc43)nc2-c2ccc(Cl)cc2)cc1` [Example 126, 3-[2-(1H-benzimidazol-1-yl)-4-(4-chlorophenyl)-5-oxazolyl]-N-(4-isopropylphenyl)propionamide] reads 232 to 233 °C.
